Measured values published in patent US8124598B2 (priority 2006, dated 2012).
“Also recorded” adds a separate entry of the source.

Experiments:
[1] = target: T1, [^3H]dexamethasone-activated glucocorticoid receptor (Homo sapiens, UniProt P04150); settings: brain cells; cited from earlier work
T1 construct: glucocorticoid receptor in brain cells; host or cells: brain cells
T1 sequence (P04150 1-777): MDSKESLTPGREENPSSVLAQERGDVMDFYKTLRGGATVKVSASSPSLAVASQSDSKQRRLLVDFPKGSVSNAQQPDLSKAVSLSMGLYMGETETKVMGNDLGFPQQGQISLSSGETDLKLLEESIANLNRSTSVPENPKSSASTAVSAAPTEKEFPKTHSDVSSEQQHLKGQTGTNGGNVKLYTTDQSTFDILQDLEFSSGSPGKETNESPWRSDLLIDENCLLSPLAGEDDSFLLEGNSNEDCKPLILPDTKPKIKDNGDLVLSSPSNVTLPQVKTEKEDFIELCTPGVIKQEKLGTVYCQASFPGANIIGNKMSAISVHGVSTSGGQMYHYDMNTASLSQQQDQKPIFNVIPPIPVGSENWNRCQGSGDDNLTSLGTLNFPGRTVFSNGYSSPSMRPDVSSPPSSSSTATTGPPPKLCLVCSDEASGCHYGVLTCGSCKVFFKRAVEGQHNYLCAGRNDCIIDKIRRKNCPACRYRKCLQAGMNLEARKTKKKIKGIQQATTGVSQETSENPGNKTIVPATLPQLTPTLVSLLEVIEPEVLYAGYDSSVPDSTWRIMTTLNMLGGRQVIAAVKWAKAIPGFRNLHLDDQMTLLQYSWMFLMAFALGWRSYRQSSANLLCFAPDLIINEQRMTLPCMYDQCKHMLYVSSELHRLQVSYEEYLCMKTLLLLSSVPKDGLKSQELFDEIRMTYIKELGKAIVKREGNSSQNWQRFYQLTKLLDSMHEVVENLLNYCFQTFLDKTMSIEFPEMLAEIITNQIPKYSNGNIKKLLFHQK

[2] = system: midlife major and minor depression or dysthymia; settings: cited from earlier work
[3] = system: treatment-resistant patients; assay: Other treatments of the Example 3 patients (history); settings: for response to other treatment: Example 3 patients 2, 3, 5, 6, 7, before 7-keto DHEA
From the text: Patient 2 A married person was anxious all their life, hypertensive, fragile, had 4 years of depression due to stress and received 12 years of psychoanalysis.

[4] = system: women with severe chronic PTSD; assay: Other medications of the Example 1 case patients (history); format: in vivo, human
Description: Case 2. patient two, a person with chronic severe PTSD (DSM-IV) associated with a history of severe childhood physical and sexual abuse, had remained highly symptomatic despite undergoing one and a half years of individual and group CBT and receiving paroxetine up to 30 mg daily, from other practitioners, for more than 4 years. […] They wished to be tapered off paroxetine because they had gained 40 lb, and after becoming obese, they also became hypertensive. Ms. […] Although their paroxetine dosage was tapered to 5 mg every other day, and lamotrigine 100 mg and topiramate 75 mg were administered daily, they remained highly symptomatic.
Case 4. patient one was in psychiatric treatment for over 25 years, including a long course of psychoanalysis and 2 years of CBT. They had been treated with adequate trials of 2 tricyclic antidepressants, 3 SSRIs, venlafaxine, 2 monoamine oxidase inhibitors, 3 anticonvulsants, many typical and atypical antipsychotics, lithium, bupropion, trazodone, and nefazodone.
[…] symptoms persisted in spite of psychotherapy for more than 15 years and numerous trials on medications.

[5] = Case 4, lorazepam 1 mg p.r.n., aripiprazole 2.5 mg daily, pemoline 75 mg daily, phentermine 30 mg daily

For `C[C@]12CC[C@H](O)CC1=C[C@@H](O)[C@@H]1[C@@H]2CC[C@]2(C)C(=O)CC[C@@H]12` [7 alpha-hydroxy DHEA], the “preventing the nuclear uptake of [^3H]dexamethasone-activated glucocorticoid receptor” value [1] is given as “efficient”.
For `C[C@]12CC[C@H](O)CC1=C[C@H](O)[C@@H]1[C@@H]2CC[C@]2(C)C(=O)CC[C@@H]12` [7 beta-hydroxy DHEA], the “preventing the nuclear uptake of [^3H]dexamethasone-activated glucocorticoid receptor” value [1] is listed as “efficient”.
For `C[C@]12CC[C@H](O)CC1=CC[C@@H]1[C@@H]2CC[C@]2(C)C(=O)CC[C@@H]12` [DHEA, Dehydroepiandrosterone], the induced mania ([2]; case reports) is listed as “induced mania has been reported” and the effectiveness in depression ([2]; one open series and 3 placebo-controlled, double-blind, randomized trials, midlife major and minor depression or dysthymia) is listed as “supported the effectiveness”.
In the case of `CN(C)CCC=C1c2ccccc2COc2ccccc21` [Doxepin], the “response to other treatment” value [3] is reported as “partially responded” and the “tolerability of other treatment” value ([3]; human, in vivo) is reported as “intolerant of the side effects”.
In the case of `COC(=O)C(c1ccccc1)C1CCCCN1` (centres unmarked) [Methylphenidate], the adverse effect ([4]; Case 4) is reported as “made their anxiety worse”.
For `NC1=NC(=O)C(c2ccccc2)O1` (centres unmarked) [Pemoline], the benefit [4, 5] was “enough energy to function”.
In the case of `CN1CCN2c3ncccc3Cc3ccccc3C2C1` (centres unmarked) [Remeron], the “response to other treatment” value [3] is reported as “partially helped”.
For `C[S+](CC[C@H](N)C(=O)O)C[C@H]1O[C@@H](n2cnc3c(N)ncnc32)[C@H](O)[C@@H]1O` (some centres unmarked) [SAMe, S-adenosylmethionine], the “response to other treatment” value [3] was “partially helped; also recorded: made the Doxepin work better”.
In the case of `O=C1CCc2ccc(OCCCCN3CCN(c4cccc(Cl)c4Cl)CC3)cc2N1` [aripiprazole], the benefit [4, 5] is reported as “some relief from anxiety, depression, and agitation”, the weight gain ([4]; human, in vivo) is reported as 30 lb and the “response to other treatment” value [3] is reported as “partially responded”.
With `C[C@H](N)Cc1ccccc1` [dextroamphetamine] the adverse effect ([4]; Case 4) was “made their anxiety worse”.
In the case of `CNCCC(Oc1ccc(C(F)(F)F)cc1)c1ccccc1` (centres unmarked) [fluoxetine], the “adverse effect of failed trial” value ([4]; human, in vivo) is reported as “agitated and irritable”.
With `Nc1nnc(-c2cccc(Cl)c2Cl)c(N)n1` [lamotrigine] the “response to other treatment” value [3] was “partially improved”.
For `O=C1Nc2ccc(Cl)cc2C(c2ccccc2Cl)=NC1O` (centres unmarked) [lorazepam], the benefit [4, 5] was “some relief from anxiety, depression, and agitation”.
In the case of `Fc1ccc([C@@H]2CCNC[C@H]2COc2ccc3c(c2)OCO3)cc1` [paroxetine], the benefit ([4]; Case 2, patient's own judgement) is reported as “not helping their chronic severe anxiety and irritability”.
In the case of `CC(C)(N)Cc1ccccc1` [phentermine], the benefit [4, 5] is reported as “enough energy to function”.
In the case of `CN[C@H]1CC[C@@H](c2ccc(Cl)c(Cl)c2)c2ccccc21` [sertraline], the benefit ([4]; Case 5, sertraline for 6 years) is reported as “minimal benefit”, the “adverse effect of failed trial” value ([4]; human, in vivo) is reported as “agitated and irritable” and the “response to other treatment” value [3] is reported as “partially improved”.
For `COc1ccc(C(CN(C)C)C2(O)CCCCC2)cc1` (centres unmarked) [venlafaxine], the benefit ([4]; Case 5, sertraline for 6 years) was “slightly helpful”, the adverse effect ([4]; Case 5, venlafaxine at 300 mg daily) was “overly activated” and the “response to other treatment” value [3] was “partially responded”. For the same molecule, the “tolerability of other treatment” value ([3]; Example 3 patients 6 and 7) was “did not like the side effects”.
